# In ChEMBL document CHEMBL1143193, “A new family of H3 receptor antagonists based on the natural product Conessine” (Bioorg Med Chem Lett, 2008):
# Calls of active or inactive are those of the source. The rule behind the calls is not given here.
# Legend:
# [1] = target: Histamine H3 receptor (Rattus norvegicus) (UniProt Q9QYN8); experiment: Displacement of N-[3H]methylhistamine from histamine H3 receptor in rat cortex at < 5 uM
# Histamine H3 receptor = Histamine H3 receptor (Rattus norvegicus, UniProt Q9QYN8); experiment: Displacement of N-[3H]methylhistamine from histamine H3 receptor in rat cortex
# Homo sapiens [2] = species on record: Homo sapiens; experiment: Selectivity for human histamine H3 receptor over human histamine H2 receptor
# Homo sapiens [3] = species on record: Homo sapiens; experiment: Selectivity for human histamine H3 receptor over human histamine H4 receptor
# Homo sapiens [4] = species on record: Homo sapiens; experiment: Selectivity for human histamine H3 receptor over human histamine H1 receptor
# [5] = Half life in rat; type: ADME, organism-based; conditions: in vivo
# [6] = Oral bioavailability in rat; type: ADME, organism-based; conditions: in vivo
# Rattus norvegicus = species on record: Rattus norvegicus; experiment: Inhibition of R-alpha-methylhistamine-induced drinking response in rat dipsogenia model; type: functional
# Sequence of Histamine H3 receptor (Q9QYN8 whole entry): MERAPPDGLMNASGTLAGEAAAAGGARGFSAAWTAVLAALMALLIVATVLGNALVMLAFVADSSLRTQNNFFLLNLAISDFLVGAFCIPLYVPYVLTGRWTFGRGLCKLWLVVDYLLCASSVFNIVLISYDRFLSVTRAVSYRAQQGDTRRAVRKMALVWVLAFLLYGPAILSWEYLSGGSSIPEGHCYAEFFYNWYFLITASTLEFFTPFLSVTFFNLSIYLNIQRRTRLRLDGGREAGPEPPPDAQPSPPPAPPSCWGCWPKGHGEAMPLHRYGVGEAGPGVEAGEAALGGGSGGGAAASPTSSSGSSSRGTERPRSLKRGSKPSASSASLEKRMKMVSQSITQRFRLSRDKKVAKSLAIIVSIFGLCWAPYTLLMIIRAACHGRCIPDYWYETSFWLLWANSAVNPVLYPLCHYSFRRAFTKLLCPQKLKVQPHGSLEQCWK
# Sequence of Histamine H3 receptor (Rattus norvegicus) (Q9QYN8 whole entry): as above
Structure (SMILES),Ki (Histamine H3 receptor; read-out: Ki) [nM],other results
C1=C(c2ccc(CCN3CCc4ccccc43)cc2)C2CN(Cc3ccccc3)CC2C1 (stereo not drawn),–,Activity [1]: inactive
C1=C(c2ccc(CCN3CCC3)cc2)C2CN(Cc3ccccc3)CC2C1 (stereo not drawn),2.4,–
C1=C(c2ccc(CCN3Cc4ccccc4C3)cc2)C2CN(Cc3ccccc3)CC2C1 (stereo not drawn),256,–
C1=C(c2ccc(CCN3CCCC3)cc2)C2CN(c3cncnc3)CC2C1 (stereo not drawn),7,–
C1=C(c2ccc(CCN3CCCC3)cc2)[C@H]2CN(Cc3ccccc3)C[C@H]2C1,0.75,–
C1=C(c2ccc(CCN3CCCC3)cc2)[C@@H]2CN(Cc3ccccc3)C[C@@H]2C1,0.05,Selectivity ratio (Homo sapiens [2]): > 1000; Selectivity ratio (Homo sapiens [3]): > 1000; Selectivity ratio (Homo sapiens [4]): > 1000
O=C1CCCN1CCc1ccc(C2=CCC3CN(Cc4ccccc4)CC23)cc1 (stereo not drawn),310,Ki (Histamine H3 receptor; read-out: Log Ki (converted)): 132 nM
C1=C(c2ccc(CCN3CCCC3)cc2)C2CN(c3ccccn3)CC2C1 (stereo not drawn),2,–
C1=C(c2ccc(CCN3CCCC3)cc2)C2CN(c3ccccc3)CC2C1 (stereo not drawn),67,–
C1=C(c2ccc(CCN3CCCC3)cc2)C2CN(c3ncccn3)CC2C1 (stereo not drawn),36,–
C1=C(c2ccc(CCN3CCOCC3)cc2)C2CN(Cc3ccccc3)CC2C1 (stereo not drawn),1.7,–

# More lines, main results first:
Ki (Histamine H3 receptor; read-out: Ki) [nM],Structure (SMILES),other results
0.08,C1=C(c2ccc(CCN3CCCC3)cc2)[C@@H]2CN(C3CCCC3)C[C@@H]2C1,–
0.51,OC[C@H]1CCCN1CCc1ccc(C2=CCC3CN(Cc4ccccc4)CC23)cc1 (stereo partly drawn),–
0.3,C1=C(c2ccc(CCN3CCCC3)cc2)C2CN(Cc3ccccc3)CC2C1 (stereo not drawn),–
0.4,C1=C(c2ccc(CCN3CCCCC3)cc2)C2CN(Cc3ccccc3)CC2C1 (stereo not drawn),–
2.3,CN(C)CCc1ccc(C2=CCC3CN(Cc4ccccc4)CC23)cc1 (stereo not drawn),–
2.8,FC1(F)CCN(CCc2ccc(C3=CCC4CN(Cc5ccccc5)CC34)cc2)C1 (stereo not drawn),–
0.07,C1=C(c2ccc(CCN3CCCC3)cc2)[C@@H]2CN(CC3CC3)C[C@@H]2C1,half-life [5]: 6 h; Selectivity ratio (Homo sapiens [2]): > 1000; bioavailability [6]: 78%; Selectivity ratio (Homo sapiens [3]): > 1000; Selectivity ratio (Homo sapiens [4]): > 1000; Activity (Rattus norvegicus): Dose-dependent effect; minimal effective dose (Rattus norvegicus; read-out: MED): 3 mg/kg
0.9,CC(C)N1CC2CC=C(c3ccc(CCN4CCCC4)cc3)C2C1 (racemic),–
0.29,CC(C)N1C[C@@H]2CC=C(c3ccc(CCN4CCCC4)cc3)[C@@H]2C1,–
0.05,CC1CCCN1CCc1ccc(C2=CCC3CN(Cc4ccccc4)CC23)cc1 (stereo not drawn),–
0.4,C1=C(c2ccc(CCN3CCCC3)cc2)C2CN(C3CCCC3)CC2C1 (racemic),–
0.1,C1=C(c2ccc(CCN3CCCC3)cc2)C2CN(CC3CC3)CC2C1 (racemic),Ki (Histamine H3 receptor; read-out: Log Ki (converted)): 0.112 nM
66,C[C@H]1[C@H]2CC[C@H]3[C@@H]4CC=C5C[C@@H](N(C)C)CC[C@]5(C)[C@H]4CC[C@]23CN1C [CONESSINE],–
0.16,OC[C@@H]1CCCN1CCc1ccc(C2=CCC3CN(Cc4ccccc4)CC23)cc1 (stereo partly drawn),–
58,CN1CCN(CCc2ccc(C3=CCC4CN(Cc5ccccc5)CC34)cc2)CC1 (stereo not drawn),–
